In brackets after ≈: the same amount, converted by molar mass. Where two headings read alike, the source gives them in different places.
How the values were obtained:
[1] = system: Streptococcus pneumoniae 1/1; assay: MIC against Streptococcus pneumoniae 1/1; type: cell-based; settings: Table 2, Streptococcus pneumoniae 1/1, trimethoprim- and penicillin-resistant, serotype 6, clinical isolate; for MIC: read-out: MIC Sp1/1
[2] = system: Staphylococcus aureus 101; assay: MIC against Staphylococcus aureus 101; type: cell-based; settings: Table 2, Staphylococcus aureus 101, MRSA- and trimethoprim-resistant, clinical isolate; for MIC: read-out: MIC Sa101
[3] = target: T1, purified DHFR of strain Sp1/1 of Streptococcus pneumoniae (Streptococcus pneumoniae serotype 4, UniProt Q54801); type: biochemical; settings: Table 2; IC50 against purified DHFR of strain Sp1/1
T1 sequence (Q54801 1-168 I100L): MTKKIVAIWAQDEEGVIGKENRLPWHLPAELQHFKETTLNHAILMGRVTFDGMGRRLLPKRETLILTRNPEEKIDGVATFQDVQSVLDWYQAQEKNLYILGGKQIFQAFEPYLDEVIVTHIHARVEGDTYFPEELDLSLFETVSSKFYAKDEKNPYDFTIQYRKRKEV

[4] = target: purified DHFR of strain 157/4696 of Staphylococcus aureus (Staphylococcus aureus, UniProt P13955); assay: biochemical
Sequence of purified DHFR of strain 157/4696 of Staphylococcus aureus (P13955 whole entry): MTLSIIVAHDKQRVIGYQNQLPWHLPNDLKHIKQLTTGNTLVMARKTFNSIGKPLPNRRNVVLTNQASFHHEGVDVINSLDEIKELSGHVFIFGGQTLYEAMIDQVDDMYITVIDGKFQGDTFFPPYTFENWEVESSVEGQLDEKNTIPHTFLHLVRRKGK

[5] = Table 2, IC50 against purified DHFR of strain 157/4696 (highly trimethoprim-resistant; clinical isolate), read-out: DHFR Sa1

Structure (SMILES)	MIC [1] [µg/mL]	MIC [2] [µg/mL]	IC50 [3] [nM]	IC50 [4] [nM]	MIC Sp1/1 [1] [µg/mL]	MIC Sa101 [2] [µg/mL]	IC50 [4, 5] [nM]
CCOc1cc(Cc2cnc(N)nc2N)cc(OS(=O)(=O)CC(C)(C)C)c1-c1cccc(N)c1 [Example 14-i, 2,2-Dimethyl-propane-1-sulphonic acid 3′-amino-4-(2,4-diamino-pyrimidin-5-ylmethyl)-6-ethoxy-biphenyl-2-yl ester]	0.5 (≈ 1.03 µM)	8 (≈ 16.5 µM)	5.4	220	–	–	–
CCOc1cc(Cc2cnc(N)nc2N)cc(OS(=O)(=O)CC)c1-c1cccc(N)c1 [Example 14-b, Ethanesulphonic acid 3′-amino-4-(2,4-diamino-pyrimidin-5-ylmethyl)-6-ethoxy-biphenyl-2-yl ester]	2 (≈ 4.51 µM)	2 (≈ 4.51 µM)	19	140	–	–	–
CCOc1cc(Cc2cnc(N)nc2N)cc(OS(=O)(=O)N2CCCC2)c1-c1ccc(N)cc1 [Example 22-c, Pyrrolidine-1-sulphonic acid 4′-amino-4-(2,4-diamino-Ryrimidin-5-ylmethyl)-6-ethoxy-biphenyl-2-yl ester]	1 (≈ 2.06 µM)	1 (≈ 2.06 µM)	3.3	140	–	–	–
CCOc1cc(Cc2cnc(N)nc2N)cc(OS(=O)(=O)C(C)C)c1-c1ccc(N)c(F)c1 [Example 33-b, Propane-2-sulphonic acid 4′-amino-4-(2,4-diamino-pyrimidin-5-ylmethyl)-6-ethoxy-3′-fluoro-4-ylmethyl-biphenyl-2-yl ester]	1 (≈ 2.1 µM)	2 (≈ 4.21 µM)	14	260	–	–	–
CCOc1cc(Cc2cnc(N)nc2N)cc(OCC)c1-c1ccc([S+](C)[O-])cc1 (racemic) [Example 02-j, (RS)-5-(2,6-Diethoxy-4′-methanesulphinyl-biphenyl-4-ylmetyl)-pyrimidine-2,4-diamine]	4 (≈ 9.38 µM)	8 (≈ 18.8 µM)	72	1700	–	–	–
CCOc1cc(Cc2cnc(N)nc2N)cc(OS(=O)(=O)N(C)C)c1-c1cc(N)cc(F)c1 [Example 29-b, Dimethylsulphamic acid 3′-amino-4-(2,4-diamino-pyrimidin-5-ylmethyl)-6-ethoxy-5′-fluoro-biphenyl-2-yl ester]	2 (≈ 4.2 µM)	2 (≈ 4.2 µM)	14	95	–	–	–
CCOc1cc(Cc2cnc(N)nc2N)cc(OCC)c1-c1cc(C)nc(C)c1 [Example 03-d, 5-[4-(2,6-Dimethyl-pyridin-4-yl)-3,5-diethoxy-benzyl]-pyrimidine-2,4-diamine]	8 (≈ 20.3 µM)	8 (≈ 20.3 µM)	340	6000	–	–	–
CCOc1cc(Cc2cnc(N)nc2N)cc(OCC)c1-c1ccc2c(c1)CCCN2 [Example 49-, 5-[3,5-Diethoxy-4-(1,2,3,4-tetrahydro-quinolin-6-yl)-benzyl]-pyrimidine-2,4-diamine]	8 (≈ 19.1 µM)	4 (≈ 9.53 µM)	46	820	–	–	–
CCOc1cc(Cc2cnc(N)nc2N)cc(OS(=O)(=O)C(C)C)c1-c1ccc(OC(C)=O)cc1 [Example 58-, 4′-(2,4-Diamino-pyrimidin-5-ylmethyl)-6′-ethoxy-2′-(propane-2-sulphonyloxy)-biphenyl-4-yl acetate]	2	2	32	55	–	–	–
CCOc1cc(Cc2cnc(N)nc2N)cc(OS(=O)(=O)N(C)C)c1-c1ccc(N)c(F)c1 [Example 28-a, Dimethylsullhamic acid 4′-amino-4-(2,4-diamino-pyrimidin-5-ylmethyl)-6-ethoxy-3′-fluoro-biphenyl-2-yl ester]	1 (≈ 2.1 µM)	2 (≈ 4.2 µM)	5.8	320	–	–	–
CCOc1cc(Cc2cnc(N)nc2N)cc(OS(=O)(=O)N(C)C)c1-c1ccc(OC(C)=O)cc1 [Example 62-, 4′-(2,4-Diamino-pyrimidin-5-ylmethyl)-2′-dimethylsulphamoylxy-6′-ethoxy-biphenyl-4-yl acetate]	2	2	7.9	330	–	–	–
CCOc1cc(Cc2cnc(N)nc2N)cc(OS(=O)(=O)C2CCC2)c1-c1cccc(N)c1 [Example 40-a, Cyclobutane-sulphonic acid 3′-amino-4-(2,4-diamino-pyrimidin-5-ylmethyl)-6-ethoxy-biphenyl-2-yl ester]	1 (≈ 2.13 µM)	2 (≈ 4.26 µM)	6.5	52	–	–	–
CCOc1cc(Cc2cnc(N)nc2N)cc(OCC)c1-c1ccc(OC)c(OC)c1 [Example 02-l, 5-(2,6-Diethoxy-3′,4′-dimethoxy-biphenyl-4-ylmethy)-pyrimidine-2,4-diamine]	4 (≈ 9.42 µM)	8 (≈ 18.8 µM)	160	8000	–	–	–
CCOc1cc(Cc2cnc(N)nc2N)cc(OS(=O)(=O)N(C)C)c1-c1ccc(N)c(C#N)c1 [Example 43-c, Dimethylsulphamic acid 4′-amino-3′-cyano-4-(2,4-diamino-gvrimidin-5-ylmethyl)-6-ethoxy-biphenyl-2-yl ester]	2 (≈ 4.14 µM)	2 (≈ 4.14 µM)	24	160	–	–	–
CCOc1cc(Cc2cnc(N)nc2N)cc(OCC)c1-c1ccc(CN2CCOCC2)c(N)c1 [Example 04-j, 5-(3′-Amino-2,6-diethoxy-4′-morpholino-4-ylmethy-biphenyl)-pyrimidine-2,4-diamine]	–	–	48	–	4 (≈ 8.36 µM)	8 (≈ 16.7 µM)	850
CCOc1cc(Cc2cnc(N)nc2N)cc(OCC)c1-c1ccc(S(C)(=O)=O)cc1 [Example 02-i, 5-(2,6-Diethoxy-4′-methanesulphonyl-biphenyl-4-ylmethyl)-pyrimidine-2,4-diamine]	2 (≈ 4.52 µM)	8 (≈ 18.1 µM)	100	1600	–	–	–
CCOc1cc(Cc2cnc(N)nc2N)cc(OS(=O)(=O)C2CCOCC2)c1-c1ccc(N)c(C)c1 [Example 41-a, Tetrahydropyran-4-sulphonic acid 4′-amino-4-(2,4-diamino-pyrimidin-5-ylmethyl)-6-ethoxy-3′-methyl-biphenyl-2-yl ester]	0.5 (≈ 0.973 µM)	2 (≈ 3.89 µM)	0.3	55	–	–	–
CCOc1cc(Cc2cnc(N)nc2N)cc(OCC)c1-c1ccc(N)c(C)c1 [Example 04-f, 5-(4′-Amino-2,6-diethoxy-3′-methyl-biphenyl-4ylmethyl)-pyximidine-2,4-diamine]	2 (≈ 5.08 µM)	4 (≈ 10.2 µM)	55	1500	–	–	–
CCOc1cc(Cc2cnc(N)nc2N)cc(O[C@@H]2CCC[C@H]2CC#N)c1-c1ccc(O)cc1 (racemic) [Example 08-u, rac-(E)-{2-[4-(2,4-Diamino-pyrimidin-5-ylmethyl)-6-ethoxy-4′-hydroxy-biphenyl-2-yloxy]-cyclopentyl}-acetonitrile]	–	–	150	–	4 (≈ 8.7 µM)	8 (≈ 17.4 µM)	1800
CCOc1cc(Cc2cnc(N)nc2N)cc(OS(=O)(=O)CC(C)C)c1-c1cccc(N)c1 [Example 14-h, 2-Methyl-propane-1-sulphonic acid 3′-amino-4-(2,4-diamino-Dyrimidin-5-ylmethyl)-6-ethoxy-biphenyl-2-yl ester]	0.5 (≈ 1.06 µM)	2 (≈ 4.24 µM)	4.8	320	–	–	–
CCOc1cc(Cc2cnc(N)nc2N)cc(OCC)c1-c1ccc(CO)s1 [Example 02-ab, [5-[4-(2,4-Diamino-pyrimidin-5-ylmethyl)-2,6-diethoxy-phenyl]-thiophen-2-yl]-methanol]	2 (≈ 4.99 µM)	4 (≈ 9.99 µM)	38	880	–	–	–
